Measured values from US8796303B2, “Imidazo[2,1-G][1,7]naphthyridines for treating respiratory syncytial virus infections” (Biota Scientific Management Pty Ltd., priority 2010, dated 2014).
Values after ≈ are worked out from the molar mass of the structure shown. Like-named read-outs stand apart in the source and are kept apart here.

What was measured:
[1] = Aqueous solubility by laser nephelometry; assay type: physicochemical; conditions: kinetic from dmso stock, 1% DMSO, 30 minute incubation at 25° C., range 1.6-100
Experimental: Test compounds prepared in DMSO were screened in duplicate over a range of concentrations (1.6-100 ug/mL) in different aqueous media (for example pH2 or pH6.5 buffers which are relevant to the stomach and upper regions of the small intestine). Test compounds were serially diluted in 100% DMSO ranging from 10-0.16 mg/mL. These diluted compounds were then added to test plates (UV Star Griener 96 well plates) containing assay buffers with a further 1:100 dilution keeping a constant 1% DMSO concentration across the plate.

RSV A2 = test: RSV antiviral CPE assay in HEp2 cells (MTT); assay type: cell-based, respiratory syncytial virus; conditions: human respiratory syncytial virus, HEp-2, 120 h; HEp2 cells, RSV A2 moi ~0.01, 5 days, CPE by MTT
Experimental: Compounds of the invention were tested for their antiviral activity against respiratory syncytial virus. Cytopathic effect (CPE) assays were performed essentially as described in the literature (see for example Watanabe et al, 1994, J. Virological Methods, 48:257). Serial dilutions of the test compounds were made in 96 well plates. HEp2 cells (1.0×10^4 cells/well) were infected with RSV at a low multiplicity of infection (e.g. RSV A2 at an moi of ˜0.01) and added to plates to assess antiviral activity. Uninfected HEp2 cells were used to assess compound cytotoxicity. Assays were incubated for 5 days at 37° C. in a 5% CO2 atmosphere. The extent of CPE was determined via metabolism of the vital dye 3-(4,5-dimethylthiaxol-2-yl)-2,5-diphenyltetrazolium bromide (MTT). MTT (1 mg/ml) was added to each well and plates incubated for 2 hours incubation at 37° C. Wells were aspirated, iso-propanol (200 μL) was added and absorbance values read at 540/650 nm. Compound concentrations that inhibited CPE by 50% (EC50) and developed cytotoxicity (CC50) were calculated using non-linear regression analysis. The CC50 values of the compounds tested were determined to be >5000 nM.

hERG ion channel = target: T1, hERG ion channel (Homo sapiens, UniProt Q12809); test: hERG ion channel inhibition (ScreenPatch assay, IonWorks Quattro); assay type: cell-based; conditions: for IC50: CHO cells stably transfected with hERG; for inhibition at 5 min, 100 µM: human, CHO cells stably transfected with hERG cDNA
T1 construct: expressed in transfected cells; host or cells: CHO cells
Experimental: The effects of compounds of the invention on the on hERG ion channel can be evaluated using an IonWorks Quattro™ system essentially as described in the literature (see for example Bridgland-Tayor et al, 2006, J. Pharmacological and Toxicological Methods 54: 189).
Four compound concentrations were applied to naïve cells via steel needles of a 48-channel pipettor. Each application consisted of addition of 6 μL of 2× concentrated test compounds to the total of 12 μL of final volume of the extracellular well of the Population Patch Clamp™ (PPC) planar electrode. Duration of exposure to each test compound concentration was at least five minutes.
Intracellular solution was loaded into the intracellular compartment of the PPC planar electrode. Cell suspensions (CHO cells stably transfected with hERG cDNA) are pipetted into the wells of the PPC planar electrode. After establishment of a whole-cell configuration, membrane currents were recorded using patch clamp amplifier in the IonWorks Quattro™ system. Two recordings of the ion channel currents were performed (before and 5 minutes after test compound application). hERG current was measured using a pulse pattern with fixed amplitudes (conditioning prepulse: −80 mV for 25 ms; test pulse +40 mV for 80 ms) from a holding potential of 0 mV. hERG current was measured as a difference between the peak current at 1 ms after the test step to +40 mV and the steady state current at the end of the step to +40 mV.
Data acquisition and analyses was performed using the IonWorks Quattro™ system operation software. The decrease in current amplitude after test compound application was used to calculate the percent block relative to control. A compound is considered to have a low hERG inhibition when the hERG IC50 is >500 times higher than the RSV A2 EC50. The hERG IC50 of the compounds tested was >500 times higher than the corresponding RSV A2 EC50 values.

[2] = pH 2, simulated gastric fluid, pH2 buffer, read-out: Solubility at pH2
[3] = pH 6.5, aqueous buffer, pH6.5 buffer, read-out: Solubility at pH6.5

T1 sequence (Q12809 whole entry): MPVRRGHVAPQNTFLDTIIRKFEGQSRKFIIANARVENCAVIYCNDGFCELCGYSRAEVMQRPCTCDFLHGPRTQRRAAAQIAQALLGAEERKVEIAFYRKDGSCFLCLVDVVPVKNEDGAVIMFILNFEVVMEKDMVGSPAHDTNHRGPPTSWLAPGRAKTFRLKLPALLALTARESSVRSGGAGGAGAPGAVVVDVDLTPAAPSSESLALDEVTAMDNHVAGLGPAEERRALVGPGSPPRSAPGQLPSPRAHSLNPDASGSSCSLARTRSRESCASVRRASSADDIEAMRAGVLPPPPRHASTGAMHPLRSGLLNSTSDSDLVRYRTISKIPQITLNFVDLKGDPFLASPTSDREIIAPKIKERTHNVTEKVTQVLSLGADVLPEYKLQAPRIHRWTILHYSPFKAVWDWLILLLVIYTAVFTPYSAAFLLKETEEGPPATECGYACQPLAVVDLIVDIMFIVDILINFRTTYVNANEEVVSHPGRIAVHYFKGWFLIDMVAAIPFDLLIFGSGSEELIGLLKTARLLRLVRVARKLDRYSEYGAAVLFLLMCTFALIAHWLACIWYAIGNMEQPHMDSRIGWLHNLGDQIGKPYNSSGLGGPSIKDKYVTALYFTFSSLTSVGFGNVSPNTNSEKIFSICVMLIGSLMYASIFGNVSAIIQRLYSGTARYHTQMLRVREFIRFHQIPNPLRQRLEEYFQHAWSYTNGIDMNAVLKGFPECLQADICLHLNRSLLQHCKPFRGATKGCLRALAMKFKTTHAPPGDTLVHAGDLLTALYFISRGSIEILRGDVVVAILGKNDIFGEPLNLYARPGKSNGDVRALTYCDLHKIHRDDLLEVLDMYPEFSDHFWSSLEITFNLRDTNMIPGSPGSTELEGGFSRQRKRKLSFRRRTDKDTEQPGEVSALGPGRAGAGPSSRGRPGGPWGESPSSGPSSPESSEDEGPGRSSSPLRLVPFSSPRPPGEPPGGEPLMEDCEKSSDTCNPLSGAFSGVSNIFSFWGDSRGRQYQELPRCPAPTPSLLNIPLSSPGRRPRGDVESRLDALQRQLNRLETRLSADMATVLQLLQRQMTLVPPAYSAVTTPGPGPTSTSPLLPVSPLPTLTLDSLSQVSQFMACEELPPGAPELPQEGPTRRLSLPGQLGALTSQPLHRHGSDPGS

Row | solubility at 30 min [1, 2] | solubility at 30 min [1, 3] | EC50 (RSV A2) | Compound | IC50 (hERG ion channel) | inhibition at 5 min, 100 µM (hERG ion channel)
1 | 50 to 100 µg/mL (≈ 122 to 245 µM) | > 100 µg/mL | 0.0052 µM | Cc1nocc1C(=O)N1CCN2C(=O)c3ncccc3CC12c1ccc(Cl)cc1 (stereo not shown) [Compound 2, 10a-(4-chlorophenyl)-1-[(3-methyl-1,2-oxazol-4-yl)carbonyl]-2,3,10,10a-tetrahydroimidazo[2,1-g][1,7]naphthyridin-5(1H)-one] | 99.2 µM | 50.2%
2 | 50 to 100 µg/mL (≈ 122 to 245 µM) | > 100 µg/mL | 0.0041 µM | Cc1nocc1C(=O)N1CCN2C(=O)c3ncccc3C[C@]12c1ccc(Cl)cc1 (single isomer, unassigned) [Compound 2A] | 130 µM | 41.4%
